# Data from patent US12570638B2, “Fused imidazole derivatives as AHR antagonists” (Sail Biomedicines, Inc., priority 2020, dated 2026).
# Like-named read-outs stand apart in the source and are kept apart here.
# How the values were obtained:
# AHR = molecular target: T1, AHR (Homo sapiens, UniProt P35869); assay: DRE-Luciferase Reporter Assay (HepG2 AhR-Lucia reporter cells); format: cell-based; conditions: luciferase activity with AHR activating ligand at EC50, read-out: HepG2-Luc IC50
# T1 construct: other cell line with a DRE-luciferase reporter stably transfected; endogenous in cells; host or cells: Human HepG2 liver carcinoma AhR-Lucia reporter cells
# T1 sequence (P35869 11-848): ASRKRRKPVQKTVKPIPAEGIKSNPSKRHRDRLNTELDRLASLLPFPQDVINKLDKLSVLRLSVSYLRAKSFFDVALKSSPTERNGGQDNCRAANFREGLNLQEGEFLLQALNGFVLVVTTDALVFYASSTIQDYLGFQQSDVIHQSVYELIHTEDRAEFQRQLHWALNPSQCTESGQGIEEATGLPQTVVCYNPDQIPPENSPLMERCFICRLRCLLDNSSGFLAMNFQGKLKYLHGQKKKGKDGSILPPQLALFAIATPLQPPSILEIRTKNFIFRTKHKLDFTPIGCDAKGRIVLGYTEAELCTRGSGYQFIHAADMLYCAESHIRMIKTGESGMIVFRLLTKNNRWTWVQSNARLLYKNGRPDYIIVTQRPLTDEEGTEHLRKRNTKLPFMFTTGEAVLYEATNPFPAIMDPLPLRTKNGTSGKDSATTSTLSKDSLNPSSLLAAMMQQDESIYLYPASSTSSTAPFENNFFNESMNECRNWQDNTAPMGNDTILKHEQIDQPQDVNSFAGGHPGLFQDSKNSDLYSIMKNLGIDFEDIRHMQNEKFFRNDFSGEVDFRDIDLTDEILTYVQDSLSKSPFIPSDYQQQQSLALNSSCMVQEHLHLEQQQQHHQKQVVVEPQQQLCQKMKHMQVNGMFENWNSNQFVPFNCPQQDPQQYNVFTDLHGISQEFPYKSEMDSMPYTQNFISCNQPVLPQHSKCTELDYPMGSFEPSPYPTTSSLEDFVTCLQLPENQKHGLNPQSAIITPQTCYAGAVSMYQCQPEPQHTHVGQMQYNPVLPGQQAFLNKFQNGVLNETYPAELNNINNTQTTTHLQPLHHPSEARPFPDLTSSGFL
# Description: AHR binds to Dioxin Responsive Elements (DRE) upstream of genes that it activates. One measure of AHR activity is activation of a reporter gene, such as luciferase, downstream of one or multiple DRE elements. Luciferase activity will reflect activation and inhibition of AHR in the cells expressing his reporter. 20000 Human HepG2 liver carcinoma—AhR-Lucia reporter cells or Human HT29 colon adenocarcinoma—AhR reporter cells or other cell line with a DRE-luciferase reporter stably transfected were plated in Eagle's Minimal Essential Medium, 10% heat-inactivated FBS, 1× non-essential amino acids Pen-Strep (10,000 U/mL) and Normocin (100 ug/mL) in plates (96-well, 384-well or other plates) and incubated overnight at 37° C. in a CO2 incubator and treated with and without AhR antagonists at a log dilution starting at 100 uM.
# After 1 hr that cells were plated an AHR activating ligand, such as TCDD, kynurenine, ITE (2-(1H-indole-3-ylcarbonyl)-4-thiazolecarboxylic methyl ester), VAF347, BNF (beta-naphthoflavone), FICZ (6-formylindolo(3,2-b) carbazole) or other AHR ligands at their specific EC50 concentration, were added to the cells with or without AHR antagonist.
# Cells were incubated for 24 or 48 hours or another time point and then, supernatant was analyzed for determination of luciferase activity as a read-out of the AHR activation or inhibition. Luciferase was measured with the commercial kit QUANTI-Luc™ assay solution kit from Invivogen following the manufacturer's instructions.
# The level of luciferase with only agonist ligand added was the maximum signal while the luciferase with […] was the minimum signal. IC50 values were determined as the concentration which inhibits half of the luciferase activity.
# [1] = Solubility Determination Assay (PBS, LC-MS/MS); format: physicochemical; conditions: aqueous buffer, kinetic from dmso stock
# Method: The stock solutions of test compounds and control compound progesterone were prepared in DMSO at the concentrations of 10 mM. 15 μL of stock solution (10 mM) of each sample was placed in order into their proper 96-well rack. 485 μL of PBS pH 1.6 and pH 7.4 were added into each vial of the cap-less Solubility Sample plate. The assay was performed in singlet. One stir stick was added to each vial and then the vial was sealed using a molded PTFE/Silicone plug. […] After completion of the 2 hours, plugs were removed and the stir sticks were removed using a big magnet. The samples from the Solubility Sample plate were transferred into the filter plate. Using the Vacuum Manifold, all the samples were filtered. An aliquot of 5 μL was taken from the filtrate followed by addition of 495 μL of a mixture of H2O and acetonitrile containing internal standard (1:1). A certain proportion of ultrapure water was used to dilute the diluent according to the peak shape. The dilution factor was changed according to the solubility values and the LC-MS signal response.
# From the 10 mM DMSO STD plate, 6 μL was transferred into the remaining empty plate, and then 194 μL of DMSO were added to that plate to have a STD concentration of 300 μM. From the 300 μM DMSO STD plate, 5 μL were transferred into the remaining empty plate, and then 495 μL of a mixture of H2O and acetonitrile containing internal standard (1:1) were added to that plate to have a final STD concentration of 3 μM. A certain proportion of ultrapure water was used to dilute the diluent according to the peak shape. The concentrations of the standard samples were changed according to the LC-MS signal response.
# The plate was placed into the well plate autosampler. The samples were evaluated by LC-MS/MS analysis.
# All calculations were carried out using Microsoft Excel.
# The filtrate was analyzed and quantified against a standard of known concentration using LC coupled with mass spectral peak identification and quantitation. Solubility values of the test compound and control compound were calculated as follows: […]
# Any value of the compounds that was not within the specified limits was rejected and the experiment was repeated.
# “+++” indicates a solubility value equal to or greater than 10 μM, “++” indicates a solubility value between 1 and 10 μM, and “+” indicates a solubility value less than 1 μM.
# [2] = PBS pH 1.6, 25° C., read-out: Aq. Solubility at pH = 1.6
# [3] = PBS pH 7.4, 25° C., read-out: Aq. Solubility at pH = 7.4
IC50 (AHR),"solubility at 2 h [1, 2]","solubility at 2 h [1, 3]",Structure (SMILES)
100 to 500 nM,> 10 µM,> 10 µM,"Cn1nccc1C(=O)Nc1ccc2nc(-c3ccccc3C(F)(F)F)[nH]c2c1 [A, 1-methyl-N-(2-(2-(trifluoromethyl)phenyl)-1H-benzo[d]imidazol-6-yl)-1H-pyrazole-5-carboxamide]"
< 100 nM,> 10 µM,1 to 10 µM,"Cn1ncnc1C(=O)Nc1ccc2nc(-c3ccccc3C(F)(F)F)[nH]c2c1 [Compound H, 1-methyl-N-(2-(2-(trifluoromethyl)phenyl)-1H-benzo[d]imidazol-6-yl)-1H-1,2,4-triazole-5-carboxamide]"
